In US20130078224A1, “INDUCTION/MONITORING OF ARTERIOGENESIS USING SDF1 AND PDGFB OR INHIBITION OF PHD2” (LIFE SCIENCES RESEARCH PARTNERS VZW, priority 2010, published 2013):

Experiments:
[1] = system: PHD2; experiment: PHD2 expression (qPCR) in bone marrow-derived monocyte/macrophage cultures upon cytokine stimulation; format: cell-based, mice; details: for PHD2 transcripts: WT cultures, any of the concentrations tested (50 and 250 ng/mL)
Protocol: Quantitative PCR Analysis: In order to investigate gene expression in pMØ, quantitative RT-PCR (qRT-PCR) was performed. After preparing pMØ, the cells were cultured in normoxic condition for twelve hours, and the RNA was extracted. To analyze the gene profile of adductor, gastrocnemius, and soleus muscle, tissues were collected at baseline or 24 hours/72 hours post-ischemia and RNA was extracted. Macrophages and ECs were freshly sorted from dissected adductors as described below and RNA was extracted. Quantitative RT-PCR was perfouned with commercially available or homemade primers and probes for the studied genes. The assay ID (Applied Biosystems, Foster City, Calif.) or the sequence of primers and probes (when homemade) are listed in Table 5. RNA levels of Tie-2, SDF1 and PDGFB after inhibition of NF-κB pathway were measured by qRT-PCR on pMØ exposed for twelve hours to 500 nM 6-amino-4-(4-phenoxyphenylethylamino)quinazoline. […] After 24 hours, cells were harvested for RNA extraction and cDNA preparation.

[2] = system: NF-κB; experiment: NF-κB-responsive firefly luciferase reporter assay in bone marrow-derived macrophages; format: cell-based, mice
Protocol: (§1) Transduction and Transfection of Bone Marrow-Derived Macrophages and Lung Endothelial Cells: To express an inducible NF-κB responsive firefly luciferase reporter, commercially available lentiviral vector particles (LV) were used (Cignal Lenti NF-κB Reporter; SABiosciences). 2.5×10^5 bone marrow-derived macrophages and 10^5 primary lung endothelial cells (isolated as previously described (Mazzone et al., 2009, see above)) were seeded in a 24-well plate in DMEM 10% FBS or M199 20% FBS for eight hours. Cells were transduced with 10^8 TU/ml. Eight hours after transduction, the medium wash was replaced. After 48 hours, cells were stimulated with TNFα (20 ng/mL) for eight hours and the same amount of protein extract was read in a luminometer. For PHD3 silencing, siRNA oligonucleotides were designed using the Invitrogen online siRNA design tool (world wide web at maidesigner.invitrogen.com). The following sequences (sense strands) and target positions were used: PHD3 siRNA: 5′-[…]-3′ (SEQ ID NO:1); scramble siRNA:5′-[…]-3′ (SEQ ID NO:2). In brief, one day after the transduction of macrophages with LV, cells were transfected using Lipofectamine 2000 (Invitrogen) according to the manufacturer's instructions. Preparation of the oligonucleotide-Lipofectamine 2000 complexes was done as followed: 25 pmol siRNA oligonucleotide (stock: 20 μM) was diluted in 50 μl Opti-MEM I reduced serum medium. Lipofectamine 2000 (1.5 μl) was diluted in 50 μl Opti-MEM I reduced serum medium and incubated for five minutes at room temperature. siRNA oligonucleotides were gently mixed with Lipofectamine 2000 and allowed to incubate at room temperature for twenty minutes to form complexes. Just before transfection, the cell culture medium was removed and cells were rinsed twice with serum-free Opti-MEM I medium. The Lipofectamine 2000-siRNA oligonucleotide complexes were added to each well in 400 μl of serum-free Opti-MEM medium for five hours. Afterwards, cells were incubated in complete medium for 48 hours at 37° C. in a CO2 incubator and assayed for gene knockdown (qRT-PCR) and luciferase activity. To assess if the increased NFkB activity observed in PHD2^+/− macrophages was dependent on the hydroxylase activity of PHD2, 48 hours before transduction, 4×10^6 bone marrow-derived macrophages were resuspended in 240 μl of Opti-MEM and were electroporated (250 V, 950 uF, ∝ Ω) with 7 μg of plasmids expressing a wild-type PHD2 (PHD2^wt) or a PHD2 containing a mutation at the catalytic site (PHD2^H313A).

[3] = system: PHD3; experiment: PHD3 gene knockdown (qRT-PCR) in macrophages; format: cell-based, mice
Protocol: as §1, with “To assess if the increased NFkB activity observed in PHD2^+/− macrophages was dependent on the hydroxylase activity of PHD2, 48 hours before transduction, 4×10^6 bone marrow-derived macrophages were resuspended in 240 μl of Opti-MEM and were electroporated (250 V, 950 uF, ∝ Ω) with 7 μg of plasmids expressing a wild-type PHD2 (PHD2^wt) or a PHD2 containing a mutation at the catalytic site (PHD2^H313A).” left out

[4] = system: hCASMC (Human coronary artery smooth muscle cells); experiment: SMC migration (Transwell) toward PHD2+/- macrophages; format: cell-based; details: AMD3100 1 μg/ml, imatinib 2.5 μg/ml, alone or combined
Protocol: (§2) Cell Migration and Viability Assays: Migration and proliferation of SMCs and ECs were assessed by using 8 μm-pore Transwell peimeable plate for migration assays and 0.4 μm-pore Transwell permeable plate for proliferation assays (Corning Life Science). To determine cell migration toward the factors secreted by pMØ, pMØ were cultured in the lower chamber for twelve hours in RPMI 1% FBS or in M-199 1% FBS (migration assay), or 48 hours in DMEM-F12 1% FBS or in M-199 1% FBS (proliferation assay). For migration assays, hCASMC (Human coronary artery smooth muscle cells; from Lonza) and HUVEC (Human umbilical vein endothelial cells; from Lonza) were starved for twelve hours in their own medium at 1% FBS and, therefore, seeded in the upper chamber (5×10^3 cells in 200 μl of medium 1% FBS), with or without AMD3100 (1 μg/ml, Sigma-Aldrich, Dorset, U.K) and imatinib (2.5 μg/ml, Novartis). SMCs and HUVECs were incubated for two days or 24 hours, respectively, and migrated cells were fixed with 4% PFA, stained with 0.25% crystal violet/50% methanol and counted under the microscope. VEGF (100 ng/mL, R&D), PDGFB (100 ng/mL, R&D) or SDF 1 (100 ng/mL, R&D) were used as positive controls. […] The cell proliferative ability was then analyzed using WST-1 Cell Proliferation Assay (Roche Applied Biosciences) according to the manufacturer instructions after 24 hours of coculture with the pMØ. […]

[5] = system: RAOSMC (Rat Aortic Smooth Muscle Cells); experiment: SMC growth assay (WST-1) in coculture with PHD2+/- macrophages; format: cell-based; details: AMD3100, imatinib, alone or combined
Protocol: as §2

[6] = system: secondary and tertiary collateral arterioles; experiment: Collateral vessel formation in bone marrow transplanted mice treated with AMD3100/imatinib (gelatin bismuth angiography); format: in vivo
Protocol: Mouse Model of Hindlimb Ischemia: To induce hind limb ischemia, unilateral or bilateral ligations of the femoral artery and vein (proximal to the popliteal artery) and the cutaneous vessels branching from the caudal femoral artery side branch were performed without damaging the nervus femoralis (Luttun et al., Nat. Med. 8:831-840, 2002). By using this procedure, collateral flow to adductor muscles is preserved via arterioles branching from the femoral artery, therefore, 50% up to 60% of perfusion is preserved by this method. Two superficial preexisting collateral arterioles connecting the femoral and saphenous arteries were used for analysis. Functional perfusion measurements of the collateral region were performed using a Lisca PIM II camera (Gambro). Gelatin bismuth-based angiography was perfottned as described (Carmeliet et al., Nat. Med. 7:575-583, 2001) and analyzed by photoangiographs (Nikon D1 digital camera). Collateral side branches were categorized as follows: second-generation collateral arterioles directly branched off from the main collateral, whereas third-generation collateral arterioles were orientated perpendicularly to the second-generation branches. The number of secondary and tertiary collateral arterioles was counted. After perfusion-fixation, the muscle tissue between the two superficial collateral arterioles (adductor) was post-fixed in 2% paraformaldehyde (PFA) and paraffin-embedded, and were morphometrically analyzed. An endurance treadmill-running test was perfatmed at 12, 24, 48, and 72 hours after bilateral femoral artery ligation.
(§3) Bone Marrow (BM) Transplantation and Hematological Analysis: Balb/c WT and PHD2^+/− recipient mice were irradiated with 7.5 Gy. Subsequently, 5×10^6 bone marrow cells from green fluorescent protein^+ (GFP^+) WT or GFP^+ PHD2^+/− mice were injected intravenously via the tail vein. After one week, saline or AMD3100 (5 mg/kg) was administered intravenously and saline or imatinib ([…]) was administered by oral gavage for four weeks. Femoral artery ligation, treadmill running test and bismuth angiography were performed at six weeks after bone marrow reconstitution. Red and white blood cell count was determined using a hemocytometer on peripheral blood collected in heparin with capillary pipettes by retro-orbital bleeding. To assess the effect of acute deletion of macrophage-borne PHD2 on arteriogenesis, PHD2^Rosa26CreERT;lox/wt bone marrows were transplanted into lethally irradiated WT recipient mice. After five weeks, transplanted mice were injected i.p. with tamoxifen (1 mg/mouse; Sigma) or vehicle for five days. TEM quantification and femoral artery ligation were performed ten days after tamoxifen treatment as explained above. The bone marrow of PHD2^WT;Tie2:GFP or PHD2^HE;Tie2:GFP mice was transplanted in lethally irradiated WT mice. After five weeks, mice were injected systemically (5×10^11 vp) and locally (5×10^9 vp in two points of the adductor) with an AAV9 encoding the mouse extracellular domain of Tie2 fused to a flag tag (AAV9:sTie2). AAV9 encoding the human serum albumin was used as control. One week after injection of the viral vector, mice were subjected to femoral artery ligation. Blood and adductor samples were harvested at baseline and 72 hours post-ischemia and used to sort CD115^+GFP^+ circulating monocytes and F4/80^+GFP^+ macrophages.

[7] = system: collateral branches, circulating TEMs; experiment: Acute PHD2 deletion by tamoxifen in HERosa26CreERT→WT mice: TEMs, collaterals, ischemic damage; format: in vivo
Protocol: as §3

[8] = HE→WT mice, daily AMD3100 5 mg/kg or imatinib 50 mg/kg alone
[9] = tamoxifen 1 mg/mouse for five days

SDF1: Stromal cell-derived factor 1, alpha chemokine
PHD2 transcripts [1]: did not affect

VEGF
PHD2 transcripts [1]: did not affect

5′-GCCGGCUGGGCAAAUACUAUGUCA-3′ (SEQ ID NO:1) [PHD3 siRNA]
induction of NF-κB activity vs scramble control ([2]; PHD2LysCre;lox/lox macrophages): 70% | induction of NF-κB activity vs scramble control ([2]; PHD2LysCre;lox/wt macrophages): 14% | induction of NF-κB activity vs scramble control ([2]; PHD2LysCre;wt/wt macrophages): 22% | knockdown of PHD3 vs scramble control ([3]; PHD2LysCre;lox/lox macrophages): 37±0.01% | knockdown of PHD3 vs scramble control ([3]; PHD2LysCre;lox/wt macrophages): 60±0.04% | knockdown of PHD3 vs scramble control ([3]; PHD2LysCre;wt/wt macrophages): 63±0.03%

c1cc(CN2CCCNCCNCCCNCC2)ccc1CN1CCCNCCNCCCNCC1 [AMD3100]
migration of SMCs toward PHD2+/- macrophages [4]: not effective | increased SMC growth by PHD2+/- macrophages [5]: abrogated | increased formation of second generation collateral branches [6, 8]: only partially prevented | third generation collaterals [6, 8]: affected | number of collateral branch arteries ([6]; WT→WT mice, alone or in combination): not affected

MCP1: monocyte chemotactic protein-1, ischemia-induced cytokine
PHD2 transcripts [1]: did not affect

CC/C(=C(\c1ccccc1)c1ccc(OCCN(C)C)cc1)c1ccccc1 [tamoxifen]
ischemic damage ([7]; 72 hours after femoral artery ligation): greatly reduced | circulating TEMs ([7]; 14 days after tamoxifen 1 mg/mouse for five days, vs vehicle): almost three-fold increased | secondary collateral branches, abundance vs vehicle [7, 9]: 1.6 times | tertiary collateral branches, abundance vs vehicle [7, 9]: 2.3 times

B1: PDGFB: platelet-derived growth factor beta protein (protein, UniProt P01127 82-190, looked up)
Platelet-derived growth …: SLGSLTIAEPAMIAECKTRTEVFEISRRLIDRTNANFLVWPPCVEVQRCSGCCNNRNVQCRPTQVQLRPVQVRKIEIVRKKPIFKKATVTLEDHLACKCETVAAARPVT
PHD2 transcripts [1]: did not affect

B2: PlGF: ischemia-induced cytokine (protein, UniProt P49763 19-221, looked up)
Placenta growth factor: LPAVPPQQWALSAGNGSSEVEVVPFQEVWGRSYCRALERLVDVVSEYPSEVEHMFSPSCVSLLRCTGCCGDENLHCVPVETANVTMQLLKIRSGDRPSYVELTFSQHVRCECRHSPGRQSPDMPGDFRADAPSFLPPRRSLPMLFRMEWGCALTGSQSAVWPSSPVPEEIPRMHPGRNGKKQQRKPLREKMKPERCGDAVPRR
PHD2 transcripts [1]: did not affect

B3: angiopoietin-2: Tie2 ligand cytokine (Prospec) (protein, UniProt O15123 19-496, looked up)
Angiopoietin-2: YNNFRKSMDSIGKKQYQVQHGSCSYTFLLPEMDNCRSSSSPYVSNAVQRDAPLEYDDSVQRLQVLENIMENNTQWLMKLENYIQDNMKKEMVEIQQNAVQNQTAVMIEIGTNLLNQTAEQTRKLTDVEAQVLNQTTRLELQLLEHSLSTNKLEKQILDQTSEINKLQDKNSFLEKKVLAMEDKHIIQLQSIKEEKDQLQVLVSKQNSIIEELEKKIVTATVNNSVLQKQQHDLMETVNNLLTMMSTSNSAKDPTVAKEEQISFRDCAEVFKSGHTTNGIYTLTFPNSTEEIKAYCDMEAGGGGWTIIQRREDGSVDFQRTWKEYKVGFGNPSGEYWLGNEFVSQLTNQQRYVLKIHLKDWEGNEAYSLYEHFYLSSEELNYRIHLKGLTGTAGKISSISQPGNDFSTKDGDNDKCICKCSQMLTGGWWFDACGPSNLNGMYYPQRQNTNKFNGIKWYYWKGSGYSLKATTMMIRPADF
reduction of PHD2 levels ([1]; WT monocytes/macrophages, only at 50 ng/ml): 15%
